Values quoted from earlier work, collected in patent publication US20250360221A1 (priority 2025, published 2025).
“Also recorded” adds a separate entry of the source. Where a name gives a salt, the structure may show the parent alone. Read-outs that look alike come from different tables or passages of the source.

How the values were obtained:
[1] = humans
μ-opioid receptor = μ-opioid receptor (Homo sapiens, UniProt P35372)
[2] = across the human BBB; transporter type named
[3] = tested on: patients with severe cancer pain
humans = conditions: epidural injections
[4] = tested on: patients suffering from cancer pain; conditions: continuous intrathecal infusion for two weeks
proteolytic enzymes = conditions: compared to other opioid peptides
[5] = animals, prior art
[6] = intrathecal, 3 mg, patients with severe cancer pain

Sequence of μ-opioid receptor (P35372 whole entry, species assumed): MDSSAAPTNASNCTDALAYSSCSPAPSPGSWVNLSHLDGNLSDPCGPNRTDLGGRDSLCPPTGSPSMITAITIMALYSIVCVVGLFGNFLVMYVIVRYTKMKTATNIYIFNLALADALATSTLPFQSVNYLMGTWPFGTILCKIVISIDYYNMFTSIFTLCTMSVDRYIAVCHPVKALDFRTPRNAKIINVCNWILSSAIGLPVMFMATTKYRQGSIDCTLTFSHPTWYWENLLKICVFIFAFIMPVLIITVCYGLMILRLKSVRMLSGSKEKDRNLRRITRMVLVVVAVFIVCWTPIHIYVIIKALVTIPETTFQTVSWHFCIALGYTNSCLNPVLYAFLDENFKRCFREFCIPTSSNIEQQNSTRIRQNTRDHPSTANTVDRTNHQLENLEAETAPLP

**Q.** For `CCOC(=O)CC(O)(CC(=O)OCC)C(=O)OCC` [triethyl citrate], which “crossing of the BBB” value ([1]; prior art) is on record?
**A.** probably crosses the BBB

**Q.** With α endorphin as the compound, how does the analgesic activity (μ-opioid receptor) read?
**A.** not analgesic

**Q.** For `Cc1cc(OCC(=O)O)cc(C)c1Cc1ccc(O)c(C(C)C)c1` [sobetirome], which “crossing of the BBB” value ([1]; prior art) is on record?
**A.** crosses the BBB

**Q.** For `CC/C=C\C/C=C\C/C=C\C/C=C\C/C=C\C/C=C\CCC(=O)O` [DHA, docosahexaenoic acid], which “Active Transport” value [2] is on record?
**A.** + protein

**Q.** For “γ endorphin: γ endorphin, stated not analgesic (YGGFMTSEKSQTPLVTL; Beta-endorphin gamma-endorphin; UniProt P01189 237-253, looked up, fragment)”, which analgesic activity (μ-opioid receptor) is on record?
**A.** not analgesic

**Q.** Which respiratory depression ([3]; intrathecal or epidural administration to humans) does the source give for β-endorphin here?
**A.** no evidence of respiratory depression

**Q.** And the adverse effects [3, 6]?
**A.** without major adverse effects

**Q.** And the duration of analgesia [3, 6]?
**A.** approximately 33.4 hours

**Q.** And the duration of analgesia (humans)?
**A.** 19.5 h

**Q.** And the side effects (humans)?
**A.** without major side effects

**Q.** And the analgesia [4]?
**A.** profound analgesia

**Q.** What about the “tolerance or respiratory depression” value [4] of the same compound?
**A.** did not demonstrate tolerance; also recorded: no evidence of tolerance or respiratory depression

**Q.** What about the “resistance to degradation by proteolytic enzymes / peptidases” value (proteolytic enzymes) of the same compound?
**A.** resistant to degradation by proteolytic enzymes; also recorded: quite stable and resistant to many peptidases

**Q.** What about the respiratory depression (animals; intracerebroventricular administration) of the same compound?
**A.** reports of respiratory depression

**Q.** And the tolerance (animals; intracerebroventricular injection)?
**A.** tolerance develops

**Q.** And the “crossing of the BBB” value ([1]; administered intravenously)?
**A.** does not cross the BBB

**Q.** For “β-endorphin (1-27) (YGGFMTSEKSQTPLVTLFKNAIIKNAY; Beta-endorphin; UniProt P01189 237-263, looked up, fragment) [shorter fragment of β-endorphin]”, which “potency compared to β-endorphin (1-31)” value (μ-opioid receptor) is on record?
**A.** less potent

**Q.** For `CC/C=C\C/C=C\C/C=C\CCCCCCCC(=O)O` [Linolenic acid], which “Active Transport” value [2] is on record?
**A.** + lipid

**Q.** For `O=C1NC(c2ccccc2)(c2ccccc2)C(=O)N1COP(=O)(O)O` [fosphenytoin], which “crossing of the BBB” value ([1]; prior art) is on record?
**A.** crosses the BBB

**Q.** What does the source list for `O=C1O[C@H]([C@@H](O)CO)C(=O)C1=O` [Dehydroascorbic acid]?
**A.** Active Transport [2]: + GLUT; crossing of the BBB [5]: crosses via GLUT1 transporter the BBB

**Q.** With `CC(C)CCC[C@@H](C)[C@H]1CC[C@H]2[C@@H]3CC=C4C[C@@H](O)CC[C@]4(C)[C@H]3CC[C@]12C` [Cholesterol] as the compound, how does the “Active Transport” value [2] read?
**A.** + lipid

**Q.** With `CC(=O)Oc1ccc2c3c1O[C@H]1[C@@H](OC(C)=O)C=C[C@H]4[C@@H](C2)N(C)CC[C@@]341` [Diacetylmorphine] as the compound, how does the “crossing of the BBB” value ([1]; prior art) read?
**A.** crosses the BBB
